The results in this text go back to PubChem BioAssay AID268 (DTP/NCI, 2004).

The structures appear in SMILES notation. Several values for one entry are separate records, joined by “and”; a condition that tells them apart may be missing. Equal values may be shown once.

This assay has as its system CD2F1 mice, P1798 lymphosarcoma sc, tumor weight T/C. Put plainly: NCI In Vivo Anticancer Drug Screen. Data for tumor model P1798 Lymphosarcoma (subcutaneous) in CD2F1 (CDF1) mice. Particulars: endpoint: mean tumor weight, higher = larger tumour. How it is done: The antitumor activity of compounds was measured in mice bearing transplantable tumors. Survival or tumor size were measured and the results are expressed as the measurement made in the treated group (T) divided by the measurement made in the vehicle treated control group (C). The tumor model used in this assay is P1798 Lymphosarcoma (subcutaneous) in CD2F1 (CDF1) mice

Setting [1] is: dose: 12.5 mg/kg/injection, schedule: Q01DX005 (sc), vehicle: steriod suspending solution.
Setting [2] is: dose: 25.0 mg/kg/injection, schedule: Q01DX005 (sc), vehicle: steriod suspending solution.
Setting [3] is: dose: 25.0 mg/kg/injection, schedule: Q02DX010 (sc), vehicle: steriod suspending solution.
Setting [4] is: dose: 50.0 mg/kg/injection, schedule: Q01DX005 (sc), vehicle: steriod suspending solution.
Setting [5] is: dose: 50.0 mg/kg/injection, schedule: Q02DX010 (sc), vehicle: steriod suspending solution.
[6] abbreviates: dose: 1.25 mg/kg/injection, schedule: Q01DX010 (ip), vehicle: saline.
Setting [7] is: dose: 2.5 mg/kg/injection, schedule: Q01DX010 (ip), vehicle: saline.
Where [8] appears, read: dose: 12.5 mg/kg/injection, schedule: Q01DX010 (ip), vehicle: saline.
Where [9] appears, read: dose: 25.0 mg/kg/injection, schedule: Q01DX010 (ip), vehicle: saline.
[10] abbreviates: dose: 50.0 mg/kg/injection, schedule: Q01DX010 (ip), vehicle: saline.
Setting [11] is: dose: 100.0 mg/kg/injection, schedule: Q01DX010 (ip), vehicle: saline.
The mark [12] stands for this setting: dose: 6.25 mg/kg/injection, schedule: Q01DX010 (ip), vehicle: saline.
Setting [13] is: dose: 5.0 mg/kg/injection, schedule: Q01DX010 (ip), vehicle: saline.
[14] abbreviates: dose: 10.0 mg/kg/injection, schedule: Q01DX010 (ip), vehicle: saline.
Where [15] appears, read: dose: 20.0 mg/kg/injection, schedule: Q01DX010 (ip), vehicle: saline.
[16] abbreviates: dose: 40.0 mg/kg/injection, schedule: Q01DX010 (ip), vehicle: saline.
Where [17] appears, read: dose: 16.0 mg/kg/injection, schedule: Q01DX010 (ip), vehicle: saline.
Where [18] appears, read: dose: 64.0 mg/kg/injection, schedule: Q01DX010 (ip), vehicle: saline.

The term T/C denotes the ratio of treated to control. For the molecule `CN(C)N=Nc1cccc([N+](=O)[O-])c1`, the T/C is 82 % of control (dose: 55.0 mg/kg/injection, schedule: Q01DX011 (ip), vehicle: saline); 188 % of control (dose: 80.0 mg/kg/injection, schedule: Q01DX011 (ip), vehicle: saline); 89 % of control (dose: 120.0 mg/kg/injection, schedule: Q01DX011 (ip), vehicle: saline); 49 % of control (dose: 178.0 mg/kg/injection, schedule: Q01DX010 (ip), vehicle: saline); 113 % of control (dose: 178.0 mg/kg/injection, schedule: Q01DX011 (ip), vehicle: saline); 74 % of control (dose: 267.0 mg/kg/injection, schedule: Q01DX010 (ip), vehicle: saline).
Consider `C[C@]12C=CC(=O)C=C1CC[C@H]1[C@@H]3C[C@@H](O)[C@](O)(C(=O)CO)[C@@]3(C)C[C@H](O)[C@@]12F`, for which the T/C was 16 % of control under setting [1]; 26 % of control (dose: 12.5 mg/kg/injection, schedule: Q03DX004 (sc), vehicle: steriod suspending solution); 2 % of control under setting [2]; 115 % of control under setting [3]; 6 % of control (dose: 25.0 mg/kg/injection, schedule: Q03DX004 (sc), vehicle: steriod suspending solution); 2 % of control under setting [4]. Also, the T/C is 122 % of control under setting [5] and 5 % of control (dose: 50.0 mg/kg/injection, schedule: Q03DX004 (sc), vehicle: steriod suspending solution).
Turning to `Cc1nc(N2CC2)nc(N2CC2)c1[N+](=O)[O-]`, the T/C is, setting by setting: under setting [6], 63 % of control and 82 % of control; under setting [7], 73 % of control and 84 % of control.
Regarding `Oc1cc(CN(CCCl)CCCl)c(O)cc1CN(CCCl)CCCl`, the T/C was 71 % of control and 86 % of control (dose: 0.63 mg/kg/injection, schedule: Q01DX010 (ip), vehicle: saline); 64 % of control and 88 % of control under setting [6]; 42 % of control and 64 % of control under setting [7].
In the case of `CC(=O)OCC(=O)[C@@]1(O)CC[C@H]2[C@@H]3C[C@H](C)C4=CC(=O)C=C[C@]4(C)[C@H]3[C@@H](O)C[C@@]21C`, the T/C (dose: 50.0 mg/kg/injection, schedule: Q01DX010 (sc), vehicle: steriod suspending solution) was 5 % of control.
As for `CCN(CC)CCCC(C)Nc1c2ccc(Cl)cc2nc2ccc(OC)cc12` (configuration not stated), the T/C is 103 % of control under setting [8]; 103 % of control and 88 % of control under setting [9]; 81 % of control and 85 % of control under setting [10]; 61 % of control and 64 % of control under setting [11].
Consider `CN(C)CCCN1c2ccccc2Sc2ccc(C(F)(F)F)cc21`, for which the T/C is 55 % of control under setting [8] and 19 % of control under setting [9].
Regarding `CS(=O)(=O)OCCCCOS(C)(=O)=O`, the T/C was 103 % of control under setting [12]; 58 % of control and 80 % of control under setting [10]; 52 % of control under setting [11].
As to `CCOC(C)C(/C=N/NC(N)=S)=NNC(N)=S` (configuration not stated), the T/C is 99 % of control (dose: 30.0 mg/kg/injection, schedule: Q01DX010 (ip), vehicle: saline); 100 % of control (dose: 60.0 mg/kg/injection, schedule: Q01DX010 (ip), vehicle: saline); 93 % of control (dose: 120.0 mg/kg/injection, schedule: Q01DX010 (ip), vehicle: saline).
Turning to `NC1(C(=O)O)CCCC1`, the T/C (dose: 22.5 mg/kg/injection, schedule: Q01DX010 (ip), vehicle: saline) is 40 % of control and 48 % of control; the T/C (dose: 45.0 mg/kg/injection, schedule: Q01DX010 (ip), vehicle: saline) was 21 % of control and 38 % of control; the T/C (dose: 90.0 mg/kg/injection, schedule: Q01DX010 (ip), vehicle: saline) was 4 % of control.
In the case of `NC(N)=NCCCC(N)C(=O)NCCCCCCNCCCCCCNC(=O)C(N)CCCN=C(N)N` (configuration not stated), the T/C is 102 % of control under setting [13], 105 % of control under setting [14], 84 % of control under setting [15] and 116 % of control under setting [16].
With `c1ccc(CSc2ncnc3nc[nH]c23)cc1`, the T/C is 70 % of control and 82 % of control under setting [8]; 83 % of control and 85 % of control under setting [9]; 13 % of control under setting [11].
Regarding `C#C[C@]1(O)CC[C@H]2[C@@H]3CCc4cc(O)ccc4[C@H]3CC[C@@]21C`, the T/C (dose: 25.0 mg/kg/injection, schedule: Q01DX010 (sc), vehicle: steriod suspending solution) was 71 % of control and 85 % of control.
In the case of `COc1cc(-c2ccc(Nc3ccccc3C(=O)O)c(OC)c2)ccc1N`, the T/C under setting [15] was 82 % of control and the T/C under setting [16] was 52 % of control.
Turning to `O=C(CNC(=O)OCc1ccccc1)NCCCCCCNCCCCCCNC(=O)CNC(=O)OCc1ccccc1`, the T/C by setting is: under setting [10], 120 % of control; under setting [11], 97 % of control.
Take `Nc1nc(SCc2ccccc2)c2[nH]cnc2n1`: the T/C is 86 % of control under setting [17] and 90 % of control under setting [18].
For `O=C(Nc1ccc(C2=NCCN2)cc1)c1ccc(C(=O)Nc2ccc(C3=NCCN3)cc2)cc1`, the T/C reads like this: under setting [17], 76 % of control; (dose: 32.0 mg/kg/injection, schedule: Q01DX010 (ip), vehicle: saline) 77 % of control; under setting [18], 73 % of control; (dose: 128.0 mg/kg/injection, schedule: Q01DX010 (ip), vehicle: saline) 47 % of control.
On to `CO[C@@]12[C@H](COC(N)=O)C3=C(C(=O)C(C)=C(N)C3=O)N1C[C@@H]1N[C@@H]12`, for which the T/C (dose: 0.25 mg/kg/injection, schedule: Q01DX010 (ip), vehicle: saline) was 85 % of control; the T/C (dose: 0.5 mg/kg/injection, schedule: Q01DX010 (ip), vehicle: saline) is 61 % of control; the T/C (dose: 1.0 mg/kg/injection, schedule: Q01DX010 (ip), vehicle: saline) was 36 % of control.
Take `CCOC(=O)NP(=O)(N1CC1)N1CC1`: the T/C under setting [13] is 64 % of control and the T/C under setting [14] was 55 % of control.
Take `CC1CC(C)OS(=O)O1` (configuration not stated): the T/C is, setting by setting: (dose: 44.0 mg/kg/injection, schedule: Q01DX010 (ip), vehicle: saline) 70 % of control; (dose: 66.0 mg/kg/injection, schedule: Q01DX010 (ip), vehicle: saline) 30 % of control.
On to `CC(=O)NCCCCCCNC(C)=O`, for which the T/C was 112 % of control under setting [10]; 95 % of control under setting [11]; 119 % of control (dose: 200.0 mg/kg/injection, schedule: Q01DX010 (ip), vehicle: saline); 86 % of control (dose: 400.0 mg/kg/injection, schedule: Q01DX010 (ip), vehicle: saline).
For `O=C1NC2C(NC(=O)N2Cl)N1Cl` (configuration not stated), the T/C is 80 % of control under setting [15]; 90 % of control under setting [16]; 76 % of control (dose: 80.0 mg/kg/injection, schedule: Q01DX010 (ip), vehicle: saline).
As for `NC(N)=NCCCC(N)C(=O)NCCCCCCCCCCNC(=O)C(N)CCCN=C(N)N` (configuration not stated), the T/C was 103 % of control under setting [12], 110 % of control under setting [8], 78 % of control under setting [9] and 99 % of control under setting [10].
As for `Cc1cc(N(CCCl)CCCl)ccc1N=Nc1ccccc1C(=O)O`, the T/C under setting [13] was 72 % of control and 79 % of control; the T/C under setting [14] is 16 % of control and 23 % of control; the T/C under setting [15] is 10 % of control.
On to `COc1ccc2cc3[n+](cc2c1OC)CCc1cc2c(cc1-3)OCO2`, for which, under “dose: 12.0 mg/kg/injection, schedule: Q01DX011 (ip), vehicle: saline”, the T/C is 75 % of control.
With `NC(Cc1ccc(N(CCCl)CCCl)cc1)C(=O)O` (configuration not stated), the T/C by setting is: under setting [7], 51 % of control; under setting [13], 39 % of control.
`C[C@]12CCC(=O)C=C1CC[C@@H]1[C@@H]2[C@@H](O)C[C@@]2(C)[C@H]1CC[C@]2(O)C(=O)CO`: the T/C is 51 % of control under setting [1]; 105 % of control (dose: 12.5 mg/kg/injection, schedule: Q02DX010 (sc), vehicle: steriod suspending solution); 15 % of control under setting [2]; 105 % of control under setting [3]; 7 % of control under setting [4]; 110 % of control under setting [5]. For the same molecule, under “dose: 100.0 mg/kg/injection, schedule: Q01DX005 (sc), vehicle: steriod suspending solution”, the T/C is 1 % of control.
Turning to `COc1cc([C@@H]2c3cc4c(cc3[C@H](O)[C@H]3COC(=O)[C@H]23)OCO4)cc(OC)c1OC`, the T/C is 56 % of control (dose: 0.9 mg/kg/injection, schedule: Q01DX011 (ip), vehicle: carboxymethylcellulose (CMC)); 111 % of control (dose: 1.7 mg/kg/injection, schedule: Q01DX011 (ip), vehicle: carboxymethylcellulose (CMC)); 80 % of control (dose: 2.2 mg/kg/injection, schedule: Q01DX011 (ip), vehicle: carboxymethylcellulose (CMC)).
